Data reported in patent publication US8901105B2, “Prodrug derivatives of (E)-N-methyl-N-((3-M ethylbenzofuran-2-yl)methyl)-3-(7-oxo-5,6,7,8-tetrahydro-1,8-naphthyridin-3-yl)acrylamide” (Affinium Pharmaceuticals, Inc., priority 2012, dated 2014).
Where a name gives a salt, the structure may show the parent alone. Read-outs that look alike come from different tables or passages of the source.

Tests used:
[1] = Photostability of solid salts; type: physicochemical
Enterococcus faecalis = assay: Broth microdilution MIC; type: cell-based
Protocol: (§1) Bacterial Isolates. Organisms tested in this study are listed in Table P. Clinical isolates consisted of 5 Staphylococcus aureus (MSSA), 3 Staphylococcus aureus (HA-MRSA), 2 Staphylococcus aureus (CA-MRSA), 2 Enterococcus faecalis (VSE), 2 Streptococcus pyogenes, and 2 Escherichia coli (susceptible to most antibiotics). S. aureus ATCC 29213, E. faecalis ATCC 29212, S. pneumoniae ATCC 49619, and E. coli ATCC 25922 were tested for the purposes of quality control.
(§2) Minimal Inhibitory Concentrations (MIC) values against the selected isolates were determined using the reference broth microdilution method according to the Clinical Laboratory Standards Institute (CLSI) guidelines.
(§3) The MIC was read and recorded as the lowest concentration of drug that inhibited visible growth of the organism.

Streptococcus pneumoniae = assay: Broth microdilution MIC; type: cell-based; details: ATCC49619, S. pneumoniae ATCC 49619, read-out: MIC
Protocol: as §1, §2, §3

Streptococcus pyogenes = assay: Broth microdilution MIC; type: cell-based
Protocol: as §1, §2, §3

- Control % Area (Table C) ([1]; control sample at ambient lab conditions protected from light): 98.9 % Area
- Photo-stability % Area ([1]; exposed to 60% of ICH minimum): 97.7 % Area
- MIC (Enterococcus faecalis; ATCC29212, E. faecalis ATCC 29212, read-out: MIC): > 16 µg/mL
- MIC (Enterococcus faecalis; E. faecalis 4158, VSE, read-out: MIC): > 16 µg/mL
- MIC (Enterococcus faecalis; E. faecalis 4212, VSE, read-out: MIC): > 16 µg/mL
- MIC (Streptococcus pneumoniae): > 16 µg/mL
- MIC (Streptococcus pyogenes; S. pyogenes 6528): >16 µg/mL
- MIC (Streptococcus pyogenes; Streptococcus pyogenes, S. pyogenes 6179, read-out: MIC): > 16 µg/mL
SMILES: Cc1c(CN(C)C(=O)/C=C/c2cnc3c(c2)CCC(=O)N3COP(=O)(O)O)oc2ccccc12 [Compound 10, (E)-6-[(N-methyl-((3-methylbenzofuran-2-yl)methyl)amino)-3-oxoprop-1-en-1-yl)-2-oxo-3,4-dihydro-1,8-naphthyridin-1(2H)-yl]methylphosphate bis-ethanolammonium salt]
